The NIST ThermoML archive (doi:10.1016/j.jct.2004.10.011)

Experiment: xn = mol fraction of the nth substance listed
Conditions: 308.15 K, Liquid, Vibrating tube method

CCC(=O)c1ccccc1 [ethyl phenyl ketone] + Cc1ccccc1
mass density [kg/m3]
Conditions | x2 = 0 | x2 = 0.1048 | x2 = 0.2025 | x2 = 0.3006 | x2 = 0.3991 | x2 = 0.4998 | x2 = 0.6004 | x2 = 0.7036 | x2 = 0.8028 | x2 = 0.902
100 kPa | 996.8 | 984.8 | 973.6 | 961.5 | 948.7 | 934.98 | 920.13 | 904.3 | 888.2 | 871
2130 kPa | 998 | 986 | 974.8 | 962.8 | 950 | 936.3 | 921.52 | 905.8 | 889.7 | 872.5
4150 kPa | 999.2 | 987.3 | 976.1 | 964.1 | 951.3 | 937.68 | 922.91 | 907.2 | 891.1 | 874.1
6180 kPa | 1000.4 | 988.5 | 977.3 | 965.3 | 952.6 | 939.04 | 924.29 | 908.7 | 892.6 | 875.6
8210 kPa | 1001.6 | 989.7 | 978.5 | 966.6 | 953.9 | 940.34 | 925.65 | 910.1 | 894 | 877.1
10230 kPa | 1002.8 | 990.9 | 979.8 | 967.8 | 955.2 | 941.64 | 927 | 911.4 | 895.5 | 878.6
11250 kPa | 1003.4 | 991.5 | 980.4 | 968.4 | 955.7 | 942.3 | 927.66 | 912.1 | 896.2 | 879.3
12260 kPa | 1003.9 | 992.1 | 981 | 969 | 956.4 | 942.94 | 928.33 | 912.8 | 896.9 | 880
14290 kPa | 1005.1 | 993.3 | 982.2 | 970.3 | 957.6 | 944.22 | 929.64 | 914.1 | 898.3 | 881.5
16310 kPa | 1006.2 | 994.4 | 983.3 | 971.4 | 958.9 | 945.46 | 930.91 | 915.4 | 899.6 | 882.9
18340 kPa | 1007.3 | 995.5 | 984.5 | 972.6 | 960 | 946.72 | 932.19 | 916.8 | 901 | 884.3
20370 kPa | 1008.4 | 996.7 | 985.6 | 973.8 | 961.2 | 947.92 | 933.45 | 918 | 902.3 | 885.6
22390 kPa | 1009.5 | 997.8 | 986.7 | 974.9 | 962.4 | 949.14 | 934.71 | 919.3 | 903.6 | 887
24420 kPa | 1010.6 | 998.9 | 987.8 | 976 | 963.6 | 950.33 | 935.93 | 920.6 | 904.9 | 888.3
26450 kPa | 1011.7 | 1000 | 988.9 | 977.2 | 964.7 | 951.5 | 937.14 | 921.8 | 906.2 | 889.7
28470 kPa | 1012.8 | 1001 | 990 | 978.3 | 965.9 | 952.65 | 938.32 | 923 | 907.4 | 891
29490 kPa | 1013.2 | 1001.6 | 990.6 | 978.8 | 966.4 | 953.24 | 938.92 | 923.6 | 908 | 891.6
30500 kPa | 1013.8 | 1002.1 | 991.1 | 979.4 | 967 | 953.82 | 939.51 | 924.2 | 908.7 | 892.2
32530 kPa | 1014.8 | 1003.2 | 992.2 | 980.5 | 968.1 | 954.96 | 940.68 | 925.4 | 909.9 | 893.5
34550 kPa | 1015.8 | 1004.2 | 993.2 | 981.5 | 969.2 | 956.07 | 941.83 | 926.6 | 911.1 | 894.7
36580 kPa | 1016.8 | 1005.2 | 994.3 | 982.6 | 970.2 | 957.16 | 942.97 | 927.7 | 912.3 | 896
38600 kPa | 1017.9 | 1006.2 | 995.3 | 983.6 | 971.3 | 958.24 | 944.07 | 928.9 | 913.4 | 897.2
39620 kPa | 1018.3 | 1006.7 | 995.8 | 984.1 | 971.9 | 958.83 | 944.64 | 929.5 | 914 | 897.8
